Measured values reported in article PMC3678512, “Synthesis and physicochemical characterization of novel phenotypic probes targeting the nuclear factor-kappa B signaling pathway” (Beilstein Journal of Organic Chemistry, 2013).
Values after ≈ are worked out from the molar mass of the structure shown. Where two headings read alike, the source gives them in different places.

Tests used:
[1] = test system: NOD1 (γ-tri-DAP) dependent IL-8 secretion; assay: NOD1 (γ-tri-DAP) dependent IL-8 secretion; assay type: cell-based
[2] = test system: NOD2-dependent IL-8 secretion in MCF-7 cells; assay: NOD2-dependent IL-8 secretion in MCF-7 cells; assay type: cell-based
[3] = test system: TNF-α-dependent IL-8 secretion in MCF-7 cells; assay: TNF-α-dependent IL-8 secretion in MCF-7 cells; assay type: cell-based
Aqueous solubility = assay type: physicochemical; conditions: for Solubility (in words): across pH 5 to 7.4
Method: (§1) The probes were evaluated using known in vitro ADME/T assays to understand their overall pharmacological properties (Table 2). […] The PAMPA (parallel artificial membrane permeability assay) assay is used as an in vitro model of passive, transcellular permeability. An artificial membrane immobilized on a filter is placed between a donor and acceptor compartment. […] It is not yet known whether it represents a species specific CPY450 inhibitor.

[4] = PAMPA (parallel artificial membrane permeability assay); assay type: in vitro ADME; conditions: for PAMPA Pe, donor pH 5.0: donor pH 5.0, acceptor pH 7.4, compound at 50 μM; for PAMPA Pe, donor pH 6.2: donor pH 6.2, acceptor pH 7.4, compound at 50 μM; for PAMPA Pe, donor pH 7.4: donor pH 7.4, acceptor pH 7.4, compound at 50 μM
Method: as §1

[5] = Hepatic microsome stability, human; assay type: in vitro ADME; conditions: for Hepatic microsome stability, human (% remaining): compound at 1 μM, 60 min
Method: as §1

[6] = Hepatic microsome stability, mouse; assay type: in vitro ADME; conditions: compound at 1 μM, 60 min
Method: as §1

[7] = Hepatic toxicity in immortalized human hepatocytes; assay type: cell-based; conditions: Fa2N-4 immortalized human hepatocytes, read-out: Hepatic toxicity LC50
Method: as §1

PKCθ = test system: PKCθ; set-up: method as in PMID 20481485, PMID 20153655; conditions: 4 at concentrations up to 8 μM; cited from earlier work
IKKβ = test system: IKKβ; set-up: method as in PMID 20481485, PMID 20153655; conditions: 4 at concentrations up to 8 μM; cited from earlier work
[8] = test system: NF-κB activation in HEK 293T cells; assay: NF-κB reporter gene assay in HEK 293T cells; assay type: cell-based, human; conditions: for Selectivity over NF-κB activation in HEK 293T cells: relative to 697 pre-B cell line potency
Description: (§2) Phenotypic screening for noncanonical NF-κB pathway selective inhibitors of IL-8 production in HEK 293, HEK 293T (ML029) and 697 pre-B cells (ML236 and ML237): Most pathways for NF-κB activation converge on the IκB kinases (IKKs), and more than nine signaling routes have been identified. While IKKs therefore represent attractive targets for drug discovery programs, the selectivity envisioned for an acceptable therapeutic index has remained elusive as inhibitors of IKKs indiscriminately suppress all known NF-κB activation pathways. Within this project, new probes were sought that were not active via the currently known receptor-driven pathways and IκB kinases, but attenuated NF-κB transcriptional activity as measured by a luciferase-based reporter gene assay with validation using a panel of known receptor and kinase-based counter screens.
(§3) Therefore, an HTS campaign was initiated to identify compounds active in these specific cell subtypes by using the established HTS NF-κB reporter gene assay format. This included screening of a larger (~330,600 compound) MLSMR collection to ensure identification of additional chemical scaffolds not previously available. From this campaign two new cell-active NF-κB inhibitors were derived that were both selective against the NF-κB pathway induced by known PKC activators (phorbol myristic acetate (PMA)/ionomycin) and were selective toward the 697 pre-B cell line. It is interesting to note that no compounds meeting probe selectivity criteria were identified within the T cell (HEK 293T) specific assay. The first oxadiazole-based probe ML236 (8) was potent (0.035 μM) in the 697 pre-B cell line and >400-fold selective over both the NF-κB activation in HEK 293T cells and against TNFα-mediated NF-κB activation. In comparison, the second oxazole-based probe 12 is also potent (0.2 μM) in the 697 pre-B cell line and >400-fold selective over both the NF-κB activation in HEK 293T cells and against TNFα mediated NF-κB activation as measured in our reporter gene assay format.

[9] = test system: NF-κB activation in 697 pre-B cell line; assay: NF-κB reporter gene assay in 697 pre-B cells (PMA/ionomycin induced); assay type: cell-based; conditions: read-out: Potency in 697 pre-B cell line (NF-κB reporter)
Description: as §2, §3

[10] = test system: TNFα-mediated NF-κB activation; assay: TNFα-mediated NF-κB activation reporter gene assay; assay type: cell-based; conditions: relative to 697 pre-B cell line potency
Description: as §3

353 kinases = assay: KINOMEscan (DiscoveRx) selectivity profiling, panel; assay type: binding; conditions: 10 uM; out of the 353 kinases surveyed
Description: (§4) This probe was discovered after two separate screening campaigns totaling ~110,000 compounds.

TLK1 = molecular target: T1, TLK1 (Homo sapiens, UniProt Q9UKI8); assay: KINOMEscan (DiscoveRx) selectivity profiling, TLK1; assay type: binding
T1 construct: purchased DiscoveRx
T1 sequence (Q9UKI8 1-766): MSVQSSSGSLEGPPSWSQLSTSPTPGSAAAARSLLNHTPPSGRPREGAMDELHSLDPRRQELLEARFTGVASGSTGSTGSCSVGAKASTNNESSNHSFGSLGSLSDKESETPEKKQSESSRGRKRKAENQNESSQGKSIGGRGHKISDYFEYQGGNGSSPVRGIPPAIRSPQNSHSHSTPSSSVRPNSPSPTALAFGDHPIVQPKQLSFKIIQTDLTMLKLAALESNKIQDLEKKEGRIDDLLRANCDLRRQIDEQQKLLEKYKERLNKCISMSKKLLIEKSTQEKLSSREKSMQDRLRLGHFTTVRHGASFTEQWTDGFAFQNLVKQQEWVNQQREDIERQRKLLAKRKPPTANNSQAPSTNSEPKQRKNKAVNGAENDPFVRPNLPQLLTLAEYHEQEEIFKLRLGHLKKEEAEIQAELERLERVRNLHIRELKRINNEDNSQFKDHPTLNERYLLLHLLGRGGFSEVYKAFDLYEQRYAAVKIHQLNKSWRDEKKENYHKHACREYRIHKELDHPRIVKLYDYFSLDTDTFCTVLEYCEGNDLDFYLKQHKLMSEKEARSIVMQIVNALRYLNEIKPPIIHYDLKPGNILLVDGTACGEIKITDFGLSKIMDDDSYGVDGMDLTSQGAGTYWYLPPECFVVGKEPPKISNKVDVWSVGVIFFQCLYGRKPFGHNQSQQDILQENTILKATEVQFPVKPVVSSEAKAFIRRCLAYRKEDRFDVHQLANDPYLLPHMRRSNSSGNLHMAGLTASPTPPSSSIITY
Description: as §4

Raf = assay: KINOMEscan (DiscoveRx) selectivity profiling, Raf; assay type: binding; conditions: 10 uM
Description: as §4

JAK2 = molecular target: T2, JAK2 (Homo sapiens, UniProt O60674); assay: KINOMEscan (DiscoveRx) selectivity profiling, JAK2; assay type: binding
T2 construct: purchased DiscoveRx
Description: as §4

[11] = test system: NF-κB transcriptional activity in HEK 293 cells; set-up: method as in PMID 20481485; conditions: NF-κB reporter, read-out: IC50 in the HEK 293 cell assay; cited from earlier work
PKCβ = test system: PKCβ; set-up: method as in PMID 20481485, PMID 20153655; conditions: 4 at concentrations up to 8 μM; cited from earlier work
[12] = pH 5.0, read-out: Aqueous solubility pH 5.0
[13] = pH 7.4, read-out: Aqueous solubility pH 7.4
[14] = aqueous medium, aqueous buffer, pH 5.0, read-out: Aqueous solubility pH 5.0
[15] = aqueous medium, pH 6.2, aqueous buffer, read-out: Aqueous solubility pH 6.2
[16] = aqueous medium, pH 7.4, aqueous buffer, read-out: Aqueous solubility pH 7.4

T2 sequence (O60674 whole entry): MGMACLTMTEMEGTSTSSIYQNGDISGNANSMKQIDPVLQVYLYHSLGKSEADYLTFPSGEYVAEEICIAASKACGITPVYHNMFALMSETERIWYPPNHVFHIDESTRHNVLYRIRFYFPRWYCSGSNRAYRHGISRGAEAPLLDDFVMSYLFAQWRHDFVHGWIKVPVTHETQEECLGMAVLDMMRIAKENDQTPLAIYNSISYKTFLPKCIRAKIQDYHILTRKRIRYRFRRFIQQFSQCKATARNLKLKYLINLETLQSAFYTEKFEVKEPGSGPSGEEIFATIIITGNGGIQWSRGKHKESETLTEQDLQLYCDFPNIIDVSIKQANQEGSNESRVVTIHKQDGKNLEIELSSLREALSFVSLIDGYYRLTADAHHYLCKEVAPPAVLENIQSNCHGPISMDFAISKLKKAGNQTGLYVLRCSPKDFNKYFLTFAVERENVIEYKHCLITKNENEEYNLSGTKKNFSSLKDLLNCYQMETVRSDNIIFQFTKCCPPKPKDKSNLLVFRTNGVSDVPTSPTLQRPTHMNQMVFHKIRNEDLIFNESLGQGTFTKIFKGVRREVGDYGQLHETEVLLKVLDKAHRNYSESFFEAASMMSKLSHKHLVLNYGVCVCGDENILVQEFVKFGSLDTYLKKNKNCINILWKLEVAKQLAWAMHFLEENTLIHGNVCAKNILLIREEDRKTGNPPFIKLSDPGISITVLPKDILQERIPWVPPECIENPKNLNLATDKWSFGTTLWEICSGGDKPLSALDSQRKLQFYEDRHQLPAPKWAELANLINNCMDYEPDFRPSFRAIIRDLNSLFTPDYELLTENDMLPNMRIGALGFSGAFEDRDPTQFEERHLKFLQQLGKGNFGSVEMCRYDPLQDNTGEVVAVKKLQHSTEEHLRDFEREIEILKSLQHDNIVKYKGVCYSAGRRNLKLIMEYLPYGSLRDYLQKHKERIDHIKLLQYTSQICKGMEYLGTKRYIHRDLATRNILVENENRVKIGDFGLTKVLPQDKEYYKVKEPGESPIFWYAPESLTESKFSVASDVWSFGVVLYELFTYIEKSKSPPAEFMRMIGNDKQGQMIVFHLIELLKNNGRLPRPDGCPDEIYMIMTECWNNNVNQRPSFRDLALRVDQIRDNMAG

Row | Structure (SMILES) | Solubility (in words) (Aqueous solubility) | solubility (Aqueous solubility; [12]) | solubility (Aqueous solubility; [13]) | PAMPA Pe, donor pH 5.0 [4] | PAMPA Pe, donor pH 6.2 [4] | PAMPA Pe, donor pH 7.4 [4] | Hepatic microsome stability, human (% remaining) [5] | Hepatic microsome stability, mouse (% remaining) [6] | CC50 [7] | Suppression of PKCθ (PKCθ) | Suppression of IKKβ (IKKβ) | Selectivity over NF-κB activation in HEK 293T cells [8] | IC50 [9] | Selectivity against TNFα-mediated NF-κB activation [10] | solubility (Aqueous solubility; [14]) | solubility (Aqueous solubility; [15]) | solubility (Aqueous solubility; [16]) | other results
1 | Cc1ccc(S(=O)(=O)n2c(N)nc3ccccc32)cc1 [Probe 13] | moderate solubility | 7.0 µM (≈ 2.01 µg/mL) | 7.0 µM (≈ 2.01 µg/mL) | 491 10^−6 cm/s | 562 10^−6 cm/s | 382 10^−6 cm/s | 41.8 % remaining | 0.8 % remaining | > 50 µM | – | – | – | – | – | – | – | – | Inhibition of NOD1 (γ-tri-DAP) dependent IL-8 secretion [1]: selectively inhibited IL-8 secretion; Inhibition of NOD2-dependent IL-8 secretion [2]: neither inhibited; Inhibition of TNF-α-dependent IL-8 secretion [3]: neither inhibited; solubility (Aqueous solubility; pH 6.2, read-out: Aqueous solubility pH 6.2): 5.9 µM (≈ 1.7 µg/mL)
2 | CN[C@@H]1C[C@H]2O[C@@](C)([C@@H]1OC)n1c3ccccc3c3c4c(c5c6ccccc6n2c5c31)C(=O)NC4 [staurosporine, reference compound] | – | – | – | – | – | – | – | – | – | potent inhibition | potent inhibition | – | – | – | – | – | – | –
3 | CNC(=O)CCc1nc(-c2ccc(C(C)(C)C)cc2)no1 [Probe 8] | good solubility | – | – | 751 10^−6 cm/s | 755 10^−6 cm/s | 746 10^−6 cm/s | 100 % remaining | 4.9 % remaining | > 50 µM | – | – | > 400 fold | 0.035 µM | > 400 fold | 92 µM (≈ 26.4 µg/mL) | 101 µM (≈ 29 µg/mL) | 103 µM (≈ 29.6 µg/mL) | Metabolic stability in human hepatic microsomes (in words) ([5]; one hour of exposure): no apparent instability
4 | CCOc1ccc(-c2nc(CSCC(=O)NC3CC3)c(C)o2)cc1 [Probe 12] | good solubility | – | – | 513 10^−6 cm/s | 541 10^−6 cm/s | 59 10^−6 cm/s | 22.7 % remaining | 0 % remaining | > 50 µM | – | – | > 400 fold | 0.2 µM | > 400 fold | 112 µM (≈ 38.8 µg/mL) | 133 µM (≈ 46.1 µg/mL) | 160 µM (≈ 55.4 µg/mL) | –
5 | Cc1cc2nc(NCCCO)n(CC(=O)c3cc(C(C)(C)C)c(O)c(C(C)(C)C)c3)c2cc1C [Probe 4] | good solubility | 90 µM (≈ 41.9 µg/mL) | 1.5 µM (≈ 0.698 µg/mL) | 299 10^−6 cm/s | 710 10^−6 cm/s | 441 10^−6 cm/s | 26 % remaining | 0.5 % remaining | > 50 µM | failed to suppress | failed to suppress | – | > 30 µM | – | – | 1.1 µM (≈ 0.512 µg/mL) | – | Number of kinases inhibited >50% (353 kinases): 3; inhibition at 10 µM (TLK1): 70%; Raf inhibition (Raf): 57%; inhibition at 10 µM (JAK2): 53%; IC50 ([8]; Homo sapiens, HEK 293T cells, read-out: Activity in HEK 293T cell line (NF-κB reporter)): > 30 µM; IC50 [11]: 0.07 µM; Suppression of PKCβ (PKCβ): failed to suppress
